US5028593A, “Tuftsin analogs” (Board of Regents, The University of Texas System, priority 1989, dated 1991)
Residues, ends and D or L forms follow the SMILES beside them.

Assays:
[1] = test system: Human polymorphonuclear leukocytes (PMN); test: Phagocytosis assay; type: cell-based; conditions: compared to tuftsin; statistically significant differences at peptide concentrations of 0.1, 1.0 and 10 μg/ml; fluorescent microspheres, 15 min
Method: Human polymorphonuclear leukocytes (PMN) are prepared from venous blood of healthy donors. Heparinized blood is mixed with dextran and kept at 37° C. for 1 hour. The leukocyte-rich plasma is collected and centrifuged. The resulting pellet is washed with Hank's balanced salt solution (HBSS). The pellet is then suspended into HBSS, layered over Lymphocyte Separation Medium (LSM) and centrifuged. The sedimented cells are washed with HBSS. Contaminant erythrocytes are lysed by suspending the cells in sterile water for 15 seconds. The isotonicity is then restored by adding 10XHBSS. After centrifuging, the PMN are washed with HBSS, suspended in the same medium, counted, and adjusted to 1×10^6 viable cells/ml (viability>95% by trypan blue dye exclusion). Cells (0.5×10^6 cells/well) are plated in 24 well plate and placed in a 37° C. CO2 incubator for 30 min. to form a monolayer. Thereafter the supernatant is aspirated. Tuftsin or analog in 250 μl HBSS and 1.25×10^7 fluorescent microspheres (2 μm diameter) in 250 μl HBSS, are added to each well resulting in a particle to PMN ratio of 25:1, mixed, and incubated for 15 min. The supernatant is then quickly aspirated and each well washed with HBSS. […] After 10 min, % phagocytosis (% of PMN containing one or more particles) is counted under a microscope. […]

K-562 tumor target cells = test: Tumor cell cytotoxicity assay by human natural killer (NK) cells (51Cr release); type: cell-based; conditions: compared to tuftsin; NK cells activated 1 hour with 10 μg peptide per ml; 4 hour 51Cr release, K-562 targets
Method: A leukocyte-rich buffy coat preparation obtained from leukophoresis of a normal volunteer is used. Buffy coat is diluted with HBSS, layered over LSM, and centrifuged. The mononuclear cells at interphase are collected, washed with HBSS, suspended in RPMI-1640 medium with 10% FBS, adjusted to 5×10^6 /l ml, plated on Petri dishes (10 ml each), and incubated for 1 hour. Non-adherent cells are collected, poured into bottles containing nylon wool wet with HBSS, and kept in the incubator for 1 hour. Non-adherent cells are collected, suspended in RPMI-1640 medium with 10% FBS, adjusted to 2×10^7 /ml, mixed (1:1 volume ratio) with sheep red blood cells (6×10^8 /ml), placed in 29° C. bath for 15 min., centrifuged, and again placed in 29° C. bath for another hour. Cell clumps are gently broken up, layered over LSM, and centrifuged. […]
The viability of this NK cell enriched fraction is assessed with trypan blue, and washed with RPMI-1640 medium with 5% FBS. […] Filters containing radioactive supernatants are counted on a γ counter and counts per minutes (cpm) are recorded. Percent cytotoxicity (% specific lysis) is calculated by the following formula: [formula] […] Maximum cpm is obtained by releasing the radioactivity from the target cells by treatment with Triton X-100.

Splenocytes = test: Thymidine incorporation assay (growth stimulation); type: cell-based, C57BL/6 female mouse; conditions: compared to tuftsin; peptide 10 μg/ml; adherent and non-adherent splenocytes; 3H-thymidine
Method: Spleen is obtained from C57BL/6 female mouse (approximately 3 months old). Splenocytes are prepared by teasing the spleen and passing them through a sieving screen. These cells in HBSS with 2% FBS are then layered over LSM and centrifuged. The cells at interphase are collected, washed with RPMI-1640 medium with 2% FBS, suspended in the same medium at 1×10^6 cells/ml, and plated into wells (1×10^6 cells per well). The plate is incubated for 45 min. in the incubator. Non-adherent cells in each well are transferred to a new well. Adherent cells and non-adherent cells are incubated in separate wells with peptide (10 μg/ml) for 6 hours in 1 ml RPMI-1640 medium with 2% FBS. ^3 H-thymidine (0.1 μCi per well) is then introduced. The plate is kept in the incubator for another 18 hours. Each well is washed and cells are collected into a tube using 1 ml of cold HBSS. After washing the cells twice, the cells are counted, mixed with 0.2 ml of 0.1% sodium dodecyl sulfate, and transferred to a liquid scintillation vial for determination of radioactivity.

## CC(C)C[C@H](NC(=O)[C@H](CCCCN)NC(=O)[C@@H](N)[C@@H](C)O)C(=O)N[C@@H](CCCCN)C(=O)O [tuftsin analog, L-Thr-L-Lys-L-Leu-L-Lys] (H-TKLK-OH)
[1]
  stimulation of phagocytosis (% phagocytosis): significantly greater stimulation of phagocytosis at lower concentrations compared to tuftsin itself
K-562 tumor target cells
  tumor cell cytotoxicity enhancement of human NK cells: significantly greater tumor cell cytotoxicity enhancement of human NK cells
Splenocytes
  stimulating thymidine incorporation (growth stimulation): significantly greater activity in stimulating thymidine incorporation (growth stimulation) than did tuftsin
